From patent US11419843B2, “Small molecule BCL-2 functional converters as cancer therapeutics” (Oregon State University, priority 2016, dated 2022)

Legend:
MDA-MB-231/Bcl-2 cells = experiment: Orthotopic breast cancer xenograft in mammary fat pad; assay type: in vivo, NOD SCID mice; details: 100 mg/kg twice a week; for Immunohistochemistry of tumor sections (TUNEL, Bcl-2 BH3, activated Bax, cleaved caspase-3): end of the study; for Tumor growth: intraperitoneal
Protocol: […] were implanted in the mammary fat pad of NOD SCID mice (N=10). Once palpable tumors were formed MTX was treated at 100 mg/kg twice a week by intraperitoneal injections. Tumor measurements were made with digital calipers twice a week.
106 MDA-MB-231/Bcl-2 cells were implanted in the mammary fat pad of NOD. SCID mice (n=8 per group). Once palpable tumors formed, mice were treated with 100 mg/kg BFC1108 twice a week by i.p. route. Tumor measurements were made with digital calipers twice a week.
All animal experiments were performed as per approved protocols from the IACUC at Oregon State University. 5 week old NOD.SCID mice were procured from Jackson Labs. Treatments were started once palpable tumors were detected. MTX was treated twice a week at 100 mg/kg dose. Body weight was measured twice a week. Tumor burden was measured twice a week using digital calipers.
All animal experiments were performed as per approved protocols from the IACUC at Oregon State University. For the mammary fat pad xenograft study, 5 week old NOD.SCID mice were procured form Jackson labs. About 10^6 cells were injected into both the lower flanks of mammary fat pad in PBS. Palpable tumors were detected in 4 weeks after which treatment with BFC1108 at 100 mg/kg twice a week continued till end of the study. Tumor mass was measured using digital calipers twice a week along with body weight. At the end of the study mice were euthanized and tumors were collected for immunohistochemical analysis.

[1] = tested on: MDA-MB-231 cells with or without the Bcl-2 expression vector; experiment: Apoptosis in MDA-MB-231 cells (DAPI, annexin V staining); assay type: cell-based, human; details: 10% FBS
[2] = tested on: H460 parental and derived paclitaxel resistant cells; experiment: Viability of H460 parental and paclitaxel resistant cells; assay type: cell-based, human; details: for Viability of H460 resistant vs parental line: 72 hours
Protocol: Percentage viability relative to vehicle treatment was calculated. Representative of three independent assays conducted in triplicate.
FIG. […] Percentage viability relative to vehicle treatment. Representative of three independent assays conducted in triplicate.
Representative of three independent assays conducted in triplicate.
Cell lines were obtained from ATCC and maintained according to manufacturer's instructions. The human lung cancer cell line NCI-H460, H69AR (ATCC) were cultured in RPMI medium (Corning) containing 10% FBS. The human breast cancer cell line MDA-MB-231 was cultured in DMEM medium (Corning) containing 10% FBS. All cell lines were maintained at 5% CO2 and 37° C. Paclitaxel resistant H460 cells were derived by treating cells once a week over 6 weeks, initially with 1 nM paclitaxel and then increasing dose incrementally up to 100 nM. Once resistance was confirmed, paclitaxel was withdrawn from the cells. Resistance to paclitaxel was maintained without presence of paclitaxel measured up to 2 months. A parental line was maintained for a similar number of passages as the resistant line. All experiments were performed using cells that had not been treated with paclitaxel in at least three passages.
Cells of interest were plated at 2000 cells per well in 96-well black tissue culture plate and allowed to adhere to the plate overnight. Viability assays were performed using 10% serum medium unless otherwise stated. Drugs were diluted in supplemented tissue culture medium and added at increasing concentrations, with DMSO as a vehicle control. […] Luminescence was measured using Tropix TR717 Microplate luminometer. Percentage of viable cells is relative to vehicle (100%). As a complementary viability assay, eBioscience Fixable Viability Dye eFluor 660(65-0864) was used to stain dead cells and analyzed using flow cytometry.

LMD231-Luc cells = experiment: Breast cancer lung metastasis model (tail vein, bioluminescence); assay type: in vivo, nude mice; details: for Growth of lung metastasis (bioluminescence): intraperitoneal, end of 7 weeks
Protocol: FIG. 19A About 200,000 LMD-231 cells stably expressing luciferase was injected into the tail vein of 6 week old nude mice. Lung metastasis was formed in 2 weeks. Mice were treated with 100 mg/kg BFC1108 4 times a week by intraperitoneal route. Bioluminescent imaging was performed once a week and quantified.
About 200,000 LMD-231 cells stably expressing luciferase was injected into the tail vein of 6 week old nude mice. Lung metastasis was detectable in 2 weeks after injection of tumor cells. Mice were treated with 50 mg/kg of BFC1103 6 times a week by intraperitoneal injections. Bioluminescent imaging was performed once a week and quantified. * P<0.05.
For the lung metastatic study, 5 week old Nude mice were procured from Jackson Labs. About 200,000 LMD231-Luc2 cells in PBS were injected into the tail vein. Lung metastasis could be detected in 2 weeks' time. Treatments with BFC1108 at 100 mg/kg, 4 times a week, were started a day after the cells were injected. Body weight was measured twice a week. Bioluminescence was measured once a week while the mice are under anesthesia. At the end of the study mice were euthanized and lung tissues were dissected and fixed for immunohistochemical analysis.
For experimental lung metastases model, LMD-231 cells derived from MDA-MB-231 that repeatedly colonized lungs were used23. Lenti viral particles with luciferase expression vector (GenTarget, San Diego, Calif.) was used to transduce LMD-231 cells to obtain high luciferase expressing clone after clonal expansion. The stable expression of luciferase was monitored for 7 weeks in vitro before using in animal experiments.
All animal experiments were performed as per approved protocols from the IACUC at Oregon State University. 5 week old nude mice were procured from Jackson Labs (Bar Harbor, Me.). Treatments were started a day after the LMD-Luc cells (200,000 cells suspended in DPBS) were injected into the lateral tail vein. Body weight was measured twice a week. Bioluminescence was measured twice a week using IVIS Lumina II (PerkinElmer, Waltham, Mass.) as per manufacturer instructions, while the mice were under anesthesia.

[3] = tested on: MDA-MB-468 cells with or without Bcl-2 expression; experiment: Viability of MDA-MB-468 cells with Bcl-2 knockdown; assay type: cell-based, human; details: 10% FBS; for Effect of Bcl-2 knockdown on viability effect in MDA-MB-468 cells: 48 h
Protocol: For Bcl-2 knockdown experiments, MDA-MB-468 cells were seeded at 4,000 cells per well in a 96 well black plate. The day after seeding, cells were subjected to Bcl-2 knockdown with 25 ng siRNAs (Dharmacon Research, Lafayette, Colo.) or 25 ng control siRNA against luciferase (Dharmacon Research, Lafayette, Colo.) using Dharmafect as transfecting reagent. After 72 h of transfection time, cells were treated with indicated compounds for 48 h and viability was assayed with CellTiter Glo Luminescent Cell Viability Assay (Promega, Madison, Wis.).

[4] = tested on: LNCaP, HepG2, H460, A375, U251, ZR-75-1 cells; experiment: Viability of a range of cancer cell types; assay type: cell-based, human
Text: Cell titer glo assay (Promega, CA) was used for assessing viability as per manufacturer instructions. DAPI stain was used to assess apoptosis.

Compound	Immunohistochemistry of tumor sections (TUNEL, Bcl-2 BH3, activated Bax, cleaved caspase-3) (MDA-MB-231/Bcl-2 cells)	Tumor growth (MDA-MB-231/Bcl-2 cells)	Apoptosis by annexin V staining ([1]; 10 μM, 48 h)	Viability of H460 resistant vs parental line [2]	Cell viability, combination with paclitaxel ([2]; paclitaxel 1 nM and BFC1108 20 μM, 24 hours)	Ki-67 staining of lung tissue (LMD231-Luc cells; 100 mg/kg, 4 times a week)	Growth of lung metastasis (bioluminescence) (LMD231-Luc cells; 100 mg/kg, 4 times a week)	Effect of Bcl-2 knockdown on viability effect in MDA-MB-468 cells [3]	Viability of a range of cancer cell types ([4]; 48 h, 10% serum)	H&E analysis of lung tissue (LMD231-Luc cells; 50 mg/kg, 6 days per week)	Ki67 staining of lung tissue (LMD231-Luc cells; 50 mg/kg, 6 days per week)	Growth of lung metastasis (bioluminescence) (LMD231-Luc cells; 50 mg/kg, 6 days per week)	Viability of various cancer cell lines ([4]; 24 h, 10% FBS)	Apoptosis by nuclear condensation and fragmentation (DAPI) ([1]; 10 μM)	Apoptosis by annexin V staining ([1]; indicated concentrations)	Effect of Bcl-2 knockdown on effect in MDA-MB-468 cells ([3]; various concentrations, 24 h)
CCOc1ccccc1NC(=O)c1cc(Cl)ccc1NC(=O)c1ccc(OC)cc1 [BFC1108, 5-chloro-N-(2-ethoxyphenyl)-2-[(4-methoxybenzoyl)amino]-benzamide]	functional conversion of Bcl-2 leading to activation of intrinsic mitochondrial death pathway was validated in vivo	significantly reduced the growth of a xenograft tumor	increased apoptosis in MDA-MB-231/Bcl-2 cells was observed	reduced viability of resistant line preferentially	synergistic reduction in cell viability	only vehicle treated animals showed Ki-67 positivity	suppressed the growth of lung metastasis	When Bcl-2 was knocked down, the cells were rescued from the effects of BFC1108	reduce viability in a variety of cancer cell types including LNCaP, HepG2, H460, A375 and U251	–	–	–	–	–	–	–
CCCCc1ccc(NC(=O)CN(Cc2ccccc2)S(C)(=O)=O)cc1 [BFC1103, N-2-benzyl-N-1-(4-butylphenyl)-N-2-(methylsulfo-nyl) glycinamide]	–	–	–	reduced viability of resistant line preferentially	–	–	–	Suppression of Bcl-2 expression reduced the effect of BFC1103	–	potent suppression of tumor growth	lung tissues from vehicle treated mice had a significantly higher number of proliferating cells, as measured by Ki67 staining, than the BFC1103 treated mice	significantly suppressed the growth of lung metastasis	reduced the viability of a host of cancer cell types including breast cancer ZR-75-1, non-small cell lung cancer H460, melanoma A375, liver cancer HepG2, and prostate cancer LNCaP cells	–	–	–
CN(Cc1cnc2nc(N)nc(N)c2n1)c1ccc(C(=O)N[C@@H](CCC(=O)O)C(=O)O)cc1 [MTX, (2S)-2-[[4-[(2,4 diaminopteridin-6-yl)methylmethylamino]benzoyl]amino] pentanedioc acid]	caused a change in conformation of Bcl-2 and induced apoptosis in Bcl-2 over-expressing tumors	significant inhibition of tumor growth	–	–	–	–	–	–	–	–	–	–	–	higher apoptosis rate in the presence of the Bcl-2 protein	increased apoptosis in the presence of the Bcl-2 protein	Knockdown of Bcl-2 in MDA-MB-468 cells diminished the apoptotic effect of MTX
